This note sets out measurements from article PMC12809313, “New Sulfonate-Semicarbazone Hybrid Molecules: Synthesis, Theoretical Evaluations, Molecular Simulations, and Butyrylcholinesterase Inhibition Activity” (ACS Omega, 2025).

The structures appear in SMILES notation. “And” between values parts separate entries of the source, which are not always exact repeats. Identical values can stand only once. Where only a bound is given, the exact number is not on record here.

Assay [1] has as its target T1, butyrylcholinesterase (BChE) (Homo sapiens, UniProt P06276). The assay can be described thus: In vitro BChE inhibition (Ellman's technique). The conditions noted are these: Ellman assay, five concentrations, triplicate. Type of assay: biochemical. As to the method: The semicarbazone derivatives were evaluated for their inhibitory activities against human acetylcholinesterase (AChE) and butyrylcholinesterase (BChE) enzymes using standard in vitro assays. The Ellman’s technique that was tailored to our lab’s needs was used to measure the activity of the cholinesterase enzyme. The test chemicals were first dissolved in DMSO at a concentration of 1 mg/mL to create stock solutions, which were then diluted 10 times with distilled water for use in the inhibition tests. Each compound’s inhibitory effects on the enzymes were evaluated at five different concentrations. Fifty microliters of distilled water, 50 μL of 0.1 M Tris–HCl buffer (pH 8.0), 15 μL of 0.015 M […] (as substrates), 30 μL of 0.06 M DTNB (5,5′-dithiobis(2-nitrobenzoic acid)), and 10 μL of enzyme solution made up the reaction mixture for the AChE and BChE tests. The absorbance of the blank solutions was measured before the substrate was added. The substrate was then added to each well to start the enzymatic reaction. Enzyme activity was kinetically assessed at 408 nm by using a microplate reader. Each inhibition measurement was repeated three times, and average values were taken when measuring the inhibitory potentials of the molecules. The IC50 values, indicating each compound’s inhibitory strength against cholinesterase, were determined by plotting percent activity versus inhibitor concentration.
For orientation: In Ellman's method for cholinesterases, released thiocholine reacts with DTNB.

The target in assay [2] is T1, butyrylcholinesterase (BChE). The assay can be described thus: BChE enzyme kinetics (Lineweaver–Burk plots). Type of assay: biochemical. The conditions noted are these: for inhibition type: Lineweaver–Burk plots; for Ki: substrate butyrylthiocholine iodide, Lineweaver–Burk, read-out: inhibition constant (K i). As to the method: The enzymatic activity of BChE was evaluated at various concentrations of the substrate butyrylthiocholine iodide (BTChI) in the presence of fixed concentrations of each inhibitor. The resulting data were analyzed by Lineweaver–Burk double reciprocal plots to determine kinetic parameters such as K m, V max, and the inhibition type (Figure ).
Different concentrations of butyrylthiocholine iodide were used in the presence of three concentrations of each compound. Lineweaver–Burk plots were constructed by plotting the reciprocal of reaction velocity (1/V) against the reciprocal of substrate concentration (1/[S]). Based on these plots, the inhibition types were determined. The inhibition constant (K i) was calculated using the following equation (eq ). 2 slope=Km/Vmax×(1+[I]/Ki)

T1 sequence (P06276 29-602): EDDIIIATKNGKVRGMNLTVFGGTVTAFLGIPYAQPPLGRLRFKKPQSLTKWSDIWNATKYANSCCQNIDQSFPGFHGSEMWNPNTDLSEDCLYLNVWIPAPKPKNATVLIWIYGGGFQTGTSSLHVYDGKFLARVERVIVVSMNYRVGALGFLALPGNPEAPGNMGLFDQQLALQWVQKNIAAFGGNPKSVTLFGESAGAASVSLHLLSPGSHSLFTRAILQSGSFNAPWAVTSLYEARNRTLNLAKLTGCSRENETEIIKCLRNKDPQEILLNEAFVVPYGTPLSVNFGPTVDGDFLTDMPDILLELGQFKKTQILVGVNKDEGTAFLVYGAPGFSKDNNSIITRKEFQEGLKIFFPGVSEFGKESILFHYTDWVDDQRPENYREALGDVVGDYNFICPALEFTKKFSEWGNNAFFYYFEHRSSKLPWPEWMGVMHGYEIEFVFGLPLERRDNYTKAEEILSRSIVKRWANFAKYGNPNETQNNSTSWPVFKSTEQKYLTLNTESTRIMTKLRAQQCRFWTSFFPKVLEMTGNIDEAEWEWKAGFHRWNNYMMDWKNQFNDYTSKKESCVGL

One may read the IC50 as the concentration that gives 50% inhibition. Lower therefore signals higher potency. `NC(=O)N/N=C/c1ccc(OS(=O)(=O)c2ccc(F)cc2)cc1` [Compound 2, 4-[(E)-(2-Carbamoylhydrazinylidene)methyl]phenyl 4-Fluorobenzene-1-sulfonate] registered an IC50 in assay [1] of 161 µM.
In the case of `NC(=O)N/N=C/c1ccc(OS(=O)(=O)c2cc(C(F)(F)F)cc(C(F)(F)F)c2)cc1` [Compound 11, 4-[(E)-(2-Carbamoylhydrazinylidene)methyl]phenyl 3,5-Bis(trifluoromethyl)benzene-1-sulfonate], in assay [1], the “BChE IC50” value is listed as “stronger inhibition than the reference drug pyridostigmine bromide”; the IC50 was < 130 µM and 114 µM.
In the case of `NC(=O)N/N=C/c1ccc(OS(=O)(=O)c2ccc(OC(F)(F)F)cc2)cc1` [Compound 14, 4-[(E)-(2-Carbamoylhydrazinylidene)methyl]phenyl 4-(Trifluoromethoxy)benzene-1-sulfonate], in assay [1], the “BChE IC50” value is recorded as “stronger inhibition than the reference drug pyridostigmine bromide”; the IC50 was < 130 µM and 130 µM.
As to `NC(=O)N/N=C/c1ccc(OS(=O)(=O)c2ccc(C(F)(F)F)cc2)cc1` [Compound 10, 4-[(E)-(2-Carbamoylhydrazinylidene)methyl]phenyl-4-(trifluoromethyl)benzene-1-sulfonate], the IC50 in assay [1] worked out at 139 µM.
On the same count and under the same terms, as for `NC(=O)N/N=C/c1ccc(OS(=O)(=O)c2ccc(Br)cc2)cc1` [Compound 4, 4-[(E)-(2-Carbamoylhydrazinylidene)methyl]phenyl 4-Bromobenzene-1-sulfonate], the figure is 177 µM.
Consider `NC(=O)N/N=C/c1ccc(OS(=O)(=O)c2ccccc2OC(F)(F)F)cc1` [Compound 12, 4-[(E)-(2-Carbamoylhydrazinylidene)methyl]phenyl 2-(Trifluoromethoxy)benzene-1-sulfonate], for which, in assay [1], the “BChE IC50” value is reported as “stronger inhibition than the reference drug pyridostigmine bromide”; the IC50 is 61.9 µM and < 130 µM. Further, in assay [2], the inhibition type entry is listed as “reversible competitive inhibitors” and the Ki came to 11.9 ± 3.31 µM.
Take `NC(=O)N/N=C/c1ccc(OS(=O)(=O)c2ccc(Cl)cc2)cc1` [Compound 3, 4-[(E)-(2-carbamoylhydrazinylidene)methyl]phenyl 4-Chlorobenzene-1-sulfonate]: the IC50 in assay [1] was 141 µM.
In the case of `NC(=O)N/N=C/c1ccc(OS(=O)(=O)c2ccc3ccccc3c2)cc1` [Compound 18, 4-[(E)-(2-Carbamoylhydrazinylidene)methyl]phenyl Naphthalene-2-sulfonate], in assay [1], the “BChE IC50” value is reported as “stronger inhibition than the reference drug pyridostigmine bromide”; the IC50 is 93.7 µM and < 130 µM. Also, in assay [2], the inhibition type result is “reversible competitive inhibitors” and the Ki is 5.49 ± 0.33 µM.
Regarding `NC(=O)N/N=C/c1ccc(OS(=O)(=O)c2cccc(C(F)(F)F)c2)cc1` [Compound 9, 4-[(E)-(2-Carbamoylhydrazinylidene)methyl]phenyl-3-(trifluoromethyl)benzene-1-sulfonate], the IC50 in assay [1] is 147 µM.
With `NC(=O)N/N=C/c1ccc(OS(=O)(=O)c2cccc3ccccc23)cc1` [Compound 17, 4-[(E)-(2-Carbamoylhydrazinylidene)methyl]phenyl Naphthalene-1-sulfonate], in assay [1], the “BChE IC50” value is recorded as “stronger inhibition than the reference drug pyridostigmine bromide”; the IC50 is 77 µM and < 130 µM. Besides, in assay [2], the inhibition type entry is “reversible competitive inhibitors” and the Ki was 9.08 ± 3.51 µM.
As for `NC(=O)N/N=C/c1ccc(OS(=O)(=O)c2ccc(-c3ccccc3)cc2)cc1` [Compound 16, 4-[(E)-(2-Carbamoylhydrazinylidene)methyl]phenyl [1,1′-Biphenyl]-4-sulfonate], in assay [1], the “BChE IC50” value is listed as “stronger inhibition than the reference drug pyridostigmine bromide”; the IC50 was < 130 µM and 112 µM.
In turn, `COc1ccc(S(=O)(=O)Oc2ccc(/C=N/NC(N)=O)cc2)cc1` [Compound 7, 4-[(E)-(2-Carbamoylhydrazinylidene)methyl]phenyl 4-Methoxybenzene-1-sulfonate] had an IC50 in assay [1] of 136 µM.
On to `NC(=O)N/N=C/c1ccc(OS(=O)(=O)c2cccc(OC(F)(F)F)c2)cc1` [Compound 13, 4-[(E)-(2-Carbamoylhydrazinylidene)methyl]phenyl 3-(Trifluoromethoxy)benzene-1-sulfonate], for which, in assay [1], the “BChE IC50” value was “stronger inhibition than the reference drug pyridostigmine bromide”; the IC50 was < 130 µM and 116 µM.
`NC(=O)N/N=C/c1ccc(OS(=O)(=O)c2ccc([N+](=O)[O-])cc2)cc1` [Compound 15, 4-[(E)-(2-Carbamoylhydrazinylidene)methyl]phenyl 4-Nitrobenzene-1-sulfonate] yielded an IC50 in assay [1] of 347 µM.
Still for that read-out and setting: for `Cc1ccc(S(=O)(=O)Oc2ccc(/C=N/NC(N)=O)cc2)cc1` [Compound 6, 4-[(E)-(2-Carbamoylhydrazinylidene)methyl]phenyl 4-Methylbenzene-1-sulfonate] the value was 178 µM.
`NC(=O)N/N=C/c1ccc(OS(=O)(=O)c2ccc(I)cc2)cc1` [Compound 5, 4-[(E)-(2-Carbamoylhydrazinylidene)methyl]phenyl 4-Iodobenzene-1-sulfonate] returned a concentration for half-maximal inhibition (IC50) in assay [1] of 173 µM. The IC50 values of the last two compounds are within 1.5-fold of each other.
As to `NC(=O)N/N=C/c1ccc(OS(=O)(=O)c2ccccc2C(F)(F)F)cc1` [Compound 8, 4-[(E)-(2-Carbamoylhydrazinylidene)methyl]phenyl 2-(Trifluoromethyl)benzene-1-sulfonate], inhibition in assay [1] was half-maximal at 172 µM (IC50). The IC50 values of the last two compounds are within 1.5-fold of each other.
For `NC(=O)N/N=C/c1ccc(OS(=O)(=O)c2ccccc2)cc1` [Compound 1, 4-[(E)-(2-Carbamoylhydrazinylidene)methyl]phenyl Benzenesulfonate], the IC50 in assay [1] was found to be 139 µM.
